Reference: patent US20070031342A1, “Sustained release microparticles for pulmonary delivery” (Nektar Therapeutics, priority 2005, published 2007)
Where two headings read alike, the source gives them in different places.

What was measured:
[1] = cited from earlier work
[2] = Rabbit aerosol inhalation model, serum sCT concentration after intratracheal aerosol administration; format: in vivo; conditions: single intratracheal aerosol administration
Description: The in vivo dissolution properties of the composition were determined in a rabbit aerosol inhalation model. In this test, the serum sCT concentration was measured for increasing time following intratracheal aerosol administration for sustained release microparticles comprising 20% w/w encapsulated sCT and compared to the concentration of a control sample comprising neat 20% w/w sCT powder. […] In contrast, the absorption of the encapsulated sCT of the microparticles reaches its maximum blood levels at 4 hours post administration and are sustained to at least 24 hours. […] Accordingly, the encapsulated sCT microparticles prepared according to the above method provide improved sustain release results over the unencapsulated sCT, by increasing the duration over which the drug is released to provide a more controlled dose of the sCT drug.

Compound	tmax ([1]; following inhalation delivery, Pulmicort Turbuhaler) [min]	absolute bioavailability ([1]; inhaled) [%]	bioavailability ([1]; nasal) [%]	bioavailability ([1]; oral) [%]	tmax ([2]; serum, inhaled or intranasal, read-out: time to maximum concentration in the blood (converted)) [min]	time after which blood levels return to baseline [2] [h]
CCCC1O[C@@H]2C[C@H]3[C@@H]4CCC5=CC(=O)C=C[C@]5(C)[C@H]4[C@@H](O)C[C@]3(C)[C@]2(C(=O)CO)O1 (stereo partly drawn) [budesonide]	~30	39	21±6	10.7±4.3	–	–
CC(C)C[C@H](NC(=O)[C@H](CCCCN)NC(=O)CNC(=O)[C@H](CC(C)C)NC(=O)[C@@H](NC(=O)[C@@H]1CSSC[C@H](N)C(=O)N[C@@H](CO)C(=O)N[C@@H](CC(N)=O)C(=O)N[C@@H](CC(C)C)C(=O)N[C@@H](CO)C(=O)N[C@@H]([C@@H](C)O)C(=O)N1)C(C)C)C(=O)N[C@@H](CO)C(=O)N[C@@H](CCC(N)=O)C(=O)N[C@@H](CCC(=O)O)C(=O)N[C@@H](CC(C)C)C(=O)N[C@@H](Cc1c[nH]cn1)C(=O)N[C@@H](CCCCN)C(=O)N[C@@H](CC(C)C)C(=O)N[C@@H](CCC(N)=O)C(=O)N[C@H](C(=O)N[C@@H](Cc1ccc(O)cc1)C(=O)N1CCC[C@H]1C(=O)N[C@@H](CCCNC(=N)N)C(=O)N[C@H](C(=O)N[C@@H](CC(N)=O)C(=O)N[C@H](C(=O)NCC(=O)N[C@@H](CO)C(=O)NCC(=O)N[C@H](C(=O)N1CCC[C@H]1C(N)=O)[C@@H](C)O)[C@@H](C)O)[C@@H](C)O)[C@@H](C)O [neat salmon calcitonin]	–	–	–	–	15	3
